# Reference: ChEMBL document CHEMBL1201862, “PubChem BioAssay data set” (2004)
#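 These data come from cells grown in 96-well plates and exposed to compound for 48 hours at five concentrations. The concentration for 50% growth inhibition is given as GI50.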 Calls of active or inactive are those of the source. No stated cut-off is given here; in the data, active = GI50 up to about 1.1 µM and inactive = higher.
# Assays:
# Assay in all cases: inhibition of tumour cell growth, NCI panel, 48 h
# [1] = system: 786-0
# [2] = system: A498
# [3] = system: A549
# [4] = system: ACHN
# [5] = system: BT-549
# [6] = system: CAKI-1
# [7] = system: CCRF-CEM
# [8] = system: COLO 205
# [9] = system: EKVX
# [10] = system: HCT-116
# [11] = system: HCT-15
# [12] = system: HOP-62
# [13] = system: HOP-92
# [14] = system: HT-29
# [15] = system: Hs-578T
# [16] = system: IGROV-1
# [17] = system: K562
# [18] = system: KM12
# [19] = system: LOX IMVI
# [20] = system: M14
# [21] = system: MCF7
# [22] = system: MDA-MB-231
# [23] = system: MDA-MB-435
# [24] = system: MDA-N
# [25] = system: MOLT-4
# [26] = system: Malme-3M
# [27] = system: NCI-H226
# [28] = system: NCI-H23
# [29] = system: NCI-H460
# [30] = system: NCI-H522
# [31] = system: NCI/ADR-RES
# [32] = system: OVCAR-3
# [33] = system: OVCAR-4
# [34] = system: OVCAR-5
# [35] = system: OVCAR-8
# [36] = system: PC-3
# [37] = system: RPMI-8226
# [38] = system: RXF 393
# [39] = system: SF-268
# [40] = system: SF-295
# [41] = system: SF-539
# [42] = system: SK-MEL-2
# [43] = system: SK-MEL-5
# [44] = system: SK-OV-3
# [45] = system: SNB-19
# [46] = system: SNB-75
# [47] = system: SR
# [48] = system: SW-620
# [49] = system: T47D
# [50] = system: TK-10
# [51] = system: U-251
# [52] = system: UACC-257
# [53] = system: UACC-62
# [54] = system: UO-31
smiles,measurement,setting,value
CN(N=O)C(=N)NC(=O)c1ccccc1,GI50,[1],> 100 µM (inactive)
same,GI50,[2],> 100 µM (inactive)
same,GI50,[3],> 100 µM (inactive)
same,GI50,[4],> 100 µM (inactive)
same,GI50,[5],> 100 µM (inactive)
same,GI50,[6],> 100 µM (inactive)
same,GI50,[7],> 100 µM (inactive)
same,GI50,[8],> 100 µM (inactive)
same,GI50,[9],61.2 µM (inactive)
same,GI50,[10],67.6 µM (inactive)
same,GI50,[11],> 100 µM
same,GI50,[12],> 100 µM (inactive)
same,GI50,[13],> 100 µM (inactive)
same,GI50,[14],> 100 µM (inactive)
same,GI50,[15],> 100 µM (inactive)
same,GI50,[16],> 100 µM (inactive)
same,GI50,[17],> 100 µM (inactive)
same,GI50,[18],> 100 µM (inactive)
same,GI50,[19],49.2 µM (inactive)
same,GI50,[20],> 100 µM (inactive)
same,GI50,[21],54.7 µM (inactive)
same,GI50,[22],> 100 µM (inactive)
same,GI50,[23],> 100 µM (inactive)
same,GI50,[24],> 100 µM (inactive)
same,GI50,[25],> 100 µM (inactive)
same,GI50,[26],> 100 µM (inactive)
same,GI50,[27],> 100 µM (inactive)
same,GI50,[28],> 100 µM (inactive)
same,GI50,[29],19.3 µM (inactive)
same,GI50,[30],> 100 µM (inactive)
same,GI50,[31],> 100 µM (inactive)
same,GI50,[32],> 100 µM (inactive)
same,GI50,[33],> 100 µM (inactive)
same,GI50,[34],> 100 µM (inactive)
same,GI50,[35],> 100 µM (inactive)
same,GI50,[36],> 100 µM (inactive)
same,GI50,[37],> 100 µM (inactive)
same,GI50,[38],> 100 µM (inactive)
same,GI50,[39],> 100 µM (inactive)
same,GI50,[40],> 100 µM (inactive)
same,GI50,[41],62.1 µM (inactive)
same,GI50,[42],> 100 µM (inactive)
same,GI50,[43],45.4 µM (inactive)
same,GI50,[44],> 100 µM (inactive)
same,GI50,[45],> 100 µM (inactive)
same,GI50,[46],51.5 µM (inactive)
same,GI50,[47],4.33 µM (inactive)
same,GI50,[48],> 100 µM (inactive)
same,GI50,[49],> 100 µM (inactive)
same,GI50,[50],> 100 µM (inactive)
same,GI50,[51],> 100 µM (inactive)
same,GI50,[52],> 100 µM (inactive)
same,GI50,[53],56.5 µM (inactive)
same,GI50,[54],> 100 µM (inactive)
